Data as given in PubChem BioAssay AID330 (DTP/NCI, 2004).
Several values for one entry are separate records, joined by “and”; a condition that tells them apart may be missing. Equal entries are not always repeated. Toxic doses and inconclusive results are not listed. How the source made its calls: active means survival T/C of 150% or more; inactive means T/C below 125% in these data.

Test system: P388 leukemia ip, CD2F1 mice, survival T/C
Assay: NCI In Vivo Anticancer Drug Screen. Data for tumor model P388 Leukemia (intraperitoneal) in CD2F1 (CDF1) mice
Details: endpoint: median survival time, higher = longer survival
Procedure, shortened: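 Mice carrying the transplanted tumor received test compound or vehicle. Survival was recorded in each group, and the value is the treated-group measurement divided by that of the vehicle-treated control group.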

[1] = dose: 25.0 mg/kg/injection, schedule: Q04DX003 (ip), vehicle: saline
[2] = dose: 50.0 mg/kg/injection, schedule: Q04DX003 (ip), vehicle: saline
[3] = dose: 60.0 mg/kg/injection, schedule: Q01DX005 (ip), vehicle: saline with Tween-80
[4] = dose: 50.0 mg/kg/injection, schedule: Q01DX005 (ip), vehicle: Klucel (hydroxypropylcellulose) (HPC)
[5] = dose: 100.0 mg/kg/injection, schedule: Q01DX005 (ip), vehicle: Klucel (hydroxypropylcellulose) (HPC)
[6] = dose: 6.25 mg/kg/injection, schedule: Q01DX009 (ip), vehicle: saline
[7] = dose: 12.5 mg/kg/injection, schedule: Q01DX009 (ip), vehicle: saline
[8] = dose: 100.0 mg/kg/injection, schedule: Q04DX003 (ip), vehicle: saline with Tween-80
[9] = dose: 200.0 mg/kg/injection, schedule: Q04DX003 (ip), vehicle: saline with Tween-80

Measured: T/C

O=C(NC1CCCCC1)O/N=C/c1ccccn1
inactive: dose: 50.0 mg/kg/injection, schedule: Q01DX001 (ip), vehicle: other 95 % of control | dose: 100.0 mg/kg/injection, schedule: Q01DX001 (ip), vehicle: other 95 % of control | dose: 200.0 mg/kg/injection, schedule: Q01DX001 (ip), vehicle: other 100 % of control

BrC1CC2(OCCO2)C(Br)CC12OCCO2 (stereo not given)
inactive: [1] 99 % of control | [2] 100 % of control | dose: 100.0 mg/kg/injection, schedule: Q04DX003 (ip), vehicle: saline 118 % of control | dose: 200.0 mg/kg/injection, schedule: Q04DX003 (ip), vehicle: saline 103 % of control | dose: 400.0 mg/kg/injection, schedule: Q04DX003 (ip), vehicle: saline 103 % of control

Cc1ccc(NC(=O)N2CCCCC2)cc1NC(=O)N1CCCCC1
inactive: [3] 94 % of control | dose: 120.0 mg/kg/injection, schedule: Q01DX005 (ip), vehicle: saline with Tween-80 91 % of control | dose: 240.0 mg/kg/injection, schedule: Q01DX005 (ip), vehicle: saline with Tween-80 88 % of control

C=CCN(CC=C)P(=O)(N(CC=C)CC=C)N(CC=C)CC=C
inactive: [4] 99 % of control | [5] 99 % of control

Cc1nc(Cl)c2cnccn12
inactive: [1] 100 % of control | [2] 100 % of control

COc1cc2c(c(OC)c1OC)-c1cc3c(cc1C(OC1OC(CO)C(O)C(O)C1O)C1COC(=O)C1C2)OCO3 (stereo not given)
inactive: dose: 15.38 mg/kg/injection, schedule: Q01DX005 (ip), vehicle: Klucel (hydroxypropylcellulose) (HPC) 108 % of control | dose: 30.75 mg/kg/injection, schedule: Q01DX005 (ip), vehicle: Klucel (hydroxypropylcellulose) (HPC) 100 % of control | dose: 61.5 mg/kg/injection, schedule: Q01DX005 (ip), vehicle: Klucel (hydroxypropylcellulose) (HPC) 113 % of control | dose: 123.0 mg/kg/injection, schedule: Q01DX005 (ip), vehicle: Klucel (hydroxypropylcellulose) (HPC) 121 % of control

CC1CN1P(=O)(N1CC2CCC(CC2)C1)N1CC1C (stereo not given)
inactive: [6] 109 % of control | [7] 95 % of control | dose: 25.0 mg/kg/injection, schedule: Q01DX009 (ip), vehicle: saline 104 % of control | [8] 122 % of control | [9] 90 % of control

O=C1OC(OC2OC(=O)C(Cl)=C2Cl)C(Cl)=C1Cl (stereo not given)
inactive: dose: 12.5 mg/kg/injection, schedule: Q01DX005 (ip), vehicle: saline with Tween-80 104 % of control and 109 % of control | dose: 25.0 mg/kg/injection, schedule: Q01DX005 (ip), vehicle: saline with Tween-80 116 % of control and 117 % of control

Cc1cc2c(=O)c3ccccc3oc2c(C#N)c1C
inactive: dose: 60.0 mg/kg/injection, schedule: Q01DX005 (ip), vehicle: saline 97 % of control | dose: 120.0 mg/kg/injection, schedule: Q01DX005 (ip), vehicle: saline 91 % of control | dose: 240.0 mg/kg/injection, schedule: Q01DX005 (ip), vehicle: saline 89 % of control

Nc1nc2c(c(=O)[nH]1)N(C(=O)CCCCCCC(=O)N1c3c(nc(N)[nH]c3=O)NCC1CNc1ccc(C(=O)NC(CCC(=O)O)C(=O)O)cc1)C(CNc1ccc(C(=O)NC(CCC(=O)O)C(=O)O)cc1)CN2 (stereo not given) (tested in a mixture with another compound)
inactive: dose: 50.0 mg/kg/injection, schedule: Q01DX005 (ip), vehicle: saline with Tween-80 100 % of control | dose: 100.0 mg/kg/injection, schedule: Q01DX005 (ip), vehicle: saline with Tween-80 96 % of control | dose: 200.0 mg/kg/injection, schedule: Q01DX005 (ip), vehicle: saline with Tween-80 100 % of control

COc1ccc(NN=O)cn1
inactive: dose: 1.56 mg/kg/injection, schedule: Q01DX009 (ip), vehicle: water 100 % of control | dose: 3.12 mg/kg/injection, schedule: Q01DX009 (ip), vehicle: water 100 % of control and 105 % of control | dose: 6.25 mg/kg/injection, schedule: Q01DX009 (ip), vehicle: water 99 % of control and 106 % of control | dose: 12.5 mg/kg/injection, schedule: Q01DX009 (ip), vehicle: water 106 % of control and 107 % of control and 98 % of control | dose: 25.0 mg/kg/injection, schedule: Q01DX009 (ip), vehicle: water 115 % of control and 122 % of control and 97 % of control | dose: 50.0 mg/kg/injection, schedule: Q01DX009 (ip), vehicle: water 114 % of control and 122 % of control | dose: 100.0 mg/kg/injection, schedule: Q01DX009 (ip), vehicle: water 122 % of control | dose: 200.0 mg/kg/injection, schedule: Q01DX009 (ip), vehicle: water 121 % of control

COc1ccc2c(c1)C(C)(C#N)N(C)C(=O)C2=O (stereo not given)
inactive: dose: 100.0 mg/kg/injection, schedule: Q01DX001 (ip), vehicle: saline with Tween-80 100 % of control | dose: 200.0 mg/kg/injection, schedule: Q01DX001 (ip), vehicle: saline with Tween-80 101 % of control | dose: 400.0 mg/kg/injection, schedule: Q01DX001 (ip), vehicle: saline with Tween-80 96 % of control

CCCCCCC(=O)/C=C/c1ccc(OC(=O)c2ccc(C#N)cc2)cc1
inactive: dose: 50.0 mg/kg/injection, schedule: Q01DX009 (ip), vehicle: saline with Tween-80 100 % of control | dose: 100.0 mg/kg/injection, schedule: Q01DX009 (ip), vehicle: saline with Tween-80 101 % of control | dose: 200.0 mg/kg/injection, schedule: Q01DX009 (ip), vehicle: saline with Tween-80 95 % of control

O=NN(CC(=O)O)CC1(O)OCC(O)C(O)C1O (stereo not given)
inactive: dose: 50.0 mg/kg/injection, schedule: Q01DX005 (ip), vehicle: saline 94 % of control | dose: 100.0 mg/kg/injection, schedule: Q01DX005 (ip), vehicle: saline 105 % of control | dose: 200.0 mg/kg/injection, schedule: Q01DX005 (ip), vehicle: saline 103 % of control

O=C1C2=C(OCO2)C(=O)C2=C1OCO2
inactive: dose: 15.0 mg/kg/injection, schedule: Q01DX005 (ip), vehicle: saline with Tween-80 104 % of control | dose: 30.0 mg/kg/injection, schedule: Q01DX005 (ip), vehicle: saline with Tween-80 101 % of control | [3] 106 % of control

Cn1c(=O)c2c(=O)n3ccccc3nc2n(C)c1=O
inactive: [4] 104 % of control | [5] 96 % of control

CN(C)c1ccc(N=C(C#N)c2ccc(Cl)cc2)cc1
inactive: dose: 50.0 mg/kg/injection, schedule: Q04DX003 (ip), vehicle: Klucel (hydroxypropylcellulose) (HPC) 99 % of control | dose: 100.0 mg/kg/injection, schedule: Q04DX003 (ip), vehicle: Klucel (hydroxypropylcellulose) (HPC) 96 % of control | dose: 200.0 mg/kg/injection, schedule: Q04DX003 (ip), vehicle: Klucel (hydroxypropylcellulose) (HPC) 103 % of control | dose: 400.0 mg/kg/injection, schedule: Q04DX003 (ip), vehicle: Klucel (hydroxypropylcellulose) (HPC) 96 % of control

COC(=O)c1n[nH]c(C(C)C)c1N=NN(C)C
inactive: [6] 107 % of control and 113 % of control | [7] 116 % of control and 122 % of control

NC(=O)Oc1ccccc1
inactive: [8] 100 % of control | [9] 104 % of control | dose: 400.0 mg/kg/injection, schedule: Q04DX003 (ip), vehicle: saline with Tween-80 100 % of control

O=CNCC(=O)O
inactive: dose: 50.0 mg/kg/injection, schedule: Q01DX009 (ip), vehicle: saline 101 % of control | dose: 100.0 mg/kg/injection, schedule: Q01DX009 (ip), vehicle: saline 97 % of control | dose: 200.0 mg/kg/injection, schedule: Q01DX009 (ip), vehicle: saline 99 % of control

Oc1ccc(N=Cc2cccs2)cc1
inactive: dose: 25.0 mg/kg/injection, schedule: Q01DX009 (ip), vehicle: Klucel (hydroxypropylcellulose) (HPC) 110 % of control | dose: 50.0 mg/kg/injection, schedule: Q01DX009 (ip), vehicle: Klucel (hydroxypropylcellulose) (HPC) 100 % of control | dose: 100.0 mg/kg/injection, schedule: Q01DX009 (ip), vehicle: Klucel (hydroxypropylcellulose) (HPC) 106 % of control | dose: 200.0 mg/kg/injection, schedule: Q01DX009 (ip), vehicle: Klucel (hydroxypropylcellulose) (HPC) 105 % of control
